The source made the active and inactive calls. How the calls were made is not given here.
Test system: CCRIS mutagenicity, Ames/micronucleus/aberration tests
Assay: CCRIS mutagenicity studies
[1] = Test System: AMES SALMONELLA TYPHIMURIUM, Strain/Indicator: TA98, Metabolic Activation: NONE, Method: PREINCUBATION
[2] = Test System: AMES SALMONELLA TYPHIMURIUM, Strain/Indicator: TA100, Metabolic Activation: NONE, Method: PREINCUBATION

SMILES: O=C(Oc1ccccc1)c1ccccc1O
- mutagenic call (Test System: AMES SALMONELLA TYPHIMURIUM, Strain/Indicator: TA98, Metabolic Activation: HAMSTER, LIVER, S-9, AROCLOR 1254 (10%), Method: PREINCUBATION): inactive; negative
- mutagenic call [1]: inactive; negative
- mutagenic call (Test System: AMES SALMONELLA TYPHIMURIUM, Strain/Indicator: TA98, Metabolic Activation: RAT, LIVER, S-9, AROCLOR 1254 (10%), Method: PREINCUBATION): inactive; negative
- mutagenic call (Test System: AMES SALMONELLA TYPHIMURIUM, Strain/Indicator: TA100, Metabolic Activation: HAMSTER, LIVER, S-9, AROCLOR 1254 (10%), Method: PREINCUBATION): inactive; negative
- mutagenic call [2]: inactive; negative
- mutagenic call (Test System: AMES SALMONELLA TYPHIMURIUM, Strain/Indicator: TA100, Metabolic Activation: RAT, LIVER, S-9, AROCLOR 1254 (10%), Method: PREINCUBATION): inactive; negative
- mutagenic call (Test System: AMES SALMONELLA TYPHIMURIUM, Strain/Indicator: TA1535, Metabolic Activation: HAMSTER, LIVER, S-9, AROCLOR 1254 (10%), Method: PREINCUBATION): inactive; negative
- mutagenic call (Test System: AMES SALMONELLA TYPHIMURIUM, Strain/Indicator: TA1535, Metabolic Activation: NONE, Method: PREINCUBATION): inactive; negative
- mutagenic call (Test System: AMES SALMONELLA TYPHIMURIUM, Strain/Indicator: TA1535, Metabolic Activation: RAT, LIVER, S-9, AROCLOR 1254 (10%), Method: PREINCUBATION): inactive; negative
- mutagenic call (Test System: AMES SALMONELLA TYPHIMURIUM, Strain/Indicator: TA1537, Metabolic Activation: HAMSTER, LIVER, S-9, AROCLOR 1254 (10%), Method: PREINCUBATION): inactive; negative
- mutagenic call (Test System: AMES SALMONELLA TYPHIMURIUM, Strain/Indicator: TA1537, Metabolic Activation: NONE, Method: PREINCUBATION): inactive; negative
- mutagenic call (Test System: AMES SALMONELLA TYPHIMURIUM, Strain/Indicator: TA1537, Metabolic Activation: RAT, LIVER, S-9, AROCLOR 1254 (10%), Method: PREINCUBATION): inactive; negative

SMILES: CS(=O)(=O)Nc1ccc(Nc2c3ccc(N=[N+]=[N-])cc3nc3ccc(N=[N+]=[N-])cc23)cc1
- mutagenic call (Test System: AMES SALMONELLA TYPHIMURIUM, Strain/Indicator: TA1537, Metabolic Activation: NONE, Method: STANDARD PLATE): inactive; negative

SMILES: O=C1NC(=O)C(Cl)=C1Cl
- mutagenic call (Test System: AMES SALMONELLA TYPHIMURIUM, Strain/Indicator: TA100, Metabolic Activation: NONE, Method: STANDARD PLATE): active; positive

SMILES: CC(C)c1ccccc1
- mutagenic call (End Point: In vivo micronucleus, Test System: Polychromatic erythrocytes in bone marrow, Species: Rat, Strain/Sex: F344/N / Male, Route: Intraperitoneal): active; positive (both trials)
- mutagenic call (End Point: In vivo micronucleus, Test System: Polychromatic erythrocytes in peripheral blood, Species: Mouse, Strain/Sex: B6C3F1/ Female, Route: Inhalation): inactive; negative
- mutagenic call (End Point: In vivo micronucleus, Test System: Polychromatic erythrocytes in peripheral blood, Species: Mouse, Strain/Sex: B6C3F1/ Male, Route: Inhalation): inactive; negative
- mutagenic call (Test System: Ames Salmonella typhimurium, Strain/Indicator: TA97, Metabolic Activation: Hamster, Liver, S-9, Aroclor 1254 (10%), Method: Preincubation): inactive; negative
- mutagenic call (Test System: Ames Salmonella typhimurium, Strain/Indicator: TA97, Metabolic Activation: Hamster, Liver, S-9, Aroclor 1254 (30%), Method: Preincubation): inactive; negative
- mutagenic call (Test System: Ames Salmonella typhimurium, Strain/Indicator: TA97, Metabolic Activation: None, Method: Preincubation): inactive; negative
- mutagenic call (Test System: Ames Salmonella typhimurium, Strain/Indicator: TA97, Metabolic Activation: Rat, Liver, S-9, Aroclor 1254 (10%), Method: Preincubation): inactive; negative
- mutagenic call (Test System: Ames Salmonella typhimurium, Strain/Indicator: TA97, Metabolic Activation: Rat, Liver, S-9, Aroclor 1254 (30%), Method: Preincubation): inactive; negative
- mutagenic call (Test System: Ames Salmonella typhimurium, Strain/Indicator: TA98, Metabolic Activation: Hamster, Liver, S-9, Aroclor 1254 (10%), Method: Preincubation): inactive; negative
- mutagenic call (Test System: Ames Salmonella typhimurium, Strain/Indicator: TA98, Metabolic Activation: Hamster, Liver, S-9, Aroclor 1254 (30%), Method: Preincubation): inactive; negative
- mutagenic call (Test System: Ames Salmonella typhimurium, Strain/Indicator: TA98, Metabolic Activation: None, Method: Preincubation): inactive; negative
- mutagenic call (Test System: Ames Salmonella typhimurium, Strain/Indicator: TA98, Metabolic Activation: Rat, Liver, S-9, Aroclor 1254 (10%), Method: Preincubation): inactive; negative
- mutagenic call (Test System: Ames Salmonella typhimurium, Strain/Indicator: TA98, Metabolic Activation: Rat, Liver, S-9, Aroclor 1254 (30%), Method: Preincubation): inactive; negative
- mutagenic call (Test System: Ames Salmonella typhimurium, Strain/Indicator: TA100, Metabolic Activation: Hamster, Liver, S-9, Aroclor 1254 (10%), Method: Preincubation): inactive; negative
- mutagenic call (Test System: Ames Salmonella typhimurium, Strain/Indicator: TA100, Metabolic Activation: Hamster, Liver, S-9, Aroclor 1254 (30%), Method: Preincubation): inactive; negative
- mutagenic call (Test System: Ames Salmonella typhimurium, Strain/Indicator: TA100, Metabolic Activation: None, Method: Preincubation): inactive; negative
- mutagenic call (Test System: Ames Salmonella typhimurium, Strain/Indicator: TA100, Metabolic Activation: Rat, Liver, S-9, Aroclor 1254 (10%), Method: Preincubation): inactive; negative
- mutagenic call (Test System: Ames Salmonella typhimurium, Strain/Indicator: TA100, Metabolic Activation: Rat, Liver, S-9, Aroclor 1254 (30%), Method: Preincubation): inactive; negative
- mutagenic call (Test System: Ames Salmonella typhimurium, Strain/Indicator: TA1535, Metabolic Activation: Hamster, Liver, S-9, Aroclor 1254 (10%), Method: Preincubation): inactive; negative
- mutagenic call (Test System: Ames Salmonella typhimurium, Strain/Indicator: TA1535, Metabolic Activation: Hamster, Liver, S-9, Aroclor 1254 (30%), Method: Preincubation): inactive; negative
- mutagenic call (Test System: Ames Salmonella typhimurium, Strain/Indicator: TA1535, Metabolic Activation: None, Method: Preincubation): inactive; negative
- mutagenic call (Test System: Ames Salmonella typhimurium, Strain/Indicator: TA1535, Metabolic Activation: Rat, Liver, S-9, Aroclor 1254 (10%), Method: Preincubation): inactive; negative
- mutagenic call (Test System: Ames Salmonella typhimurium, Strain/Indicator: TA1535, Metabolic Activation: Rat, Liver, S-9, Aroclor 1254 (30%), Method: Preincubation): inactive; negative

SMILES: CNc1ccc2ncc(-c3ccccc3)nc2c1C
- mutagenic call [1]: inactive; negative
- mutagenic call (Test System: AMES SALMONELLA TYPHIMURIUM, Strain/Indicator: TA98, Metabolic Activation: RAT, LIVER, S-9, PCB, Method: PREINCUBATION): active; positive
- mutagenic call [2]: inactive; negative
- mutagenic call (Test System: AMES SALMONELLA TYPHIMURIUM, Strain/Indicator: TA100, Metabolic Activation: RAT, LIVER, S-9, PCB, Method: PREINCUBATION): active; positive

SMILES: CC(=O)OCc1ccccc1N=Nc1ccc(N(C)C)cc1
- mutagenic call (Test System: AMES SALMONELLA TYPHIMURIUM, Strain/Indicator: TA98, Metabolic Activation: RAT, LIVER, S-9, POLYCHLORINATED BIPHENYLS, Method: PREINCUBATION): active; positive
- mutagenic call (Test System: AMES SALMONELLA TYPHIMURIUM, Strain/Indicator: TA100, Metabolic Activation: RAT, LIVER, S-9, POLYCHLORINATED BIPHENYLS, Method: PREINCUBATION): active; positive
